Literature values as cited in patent publication US20180140572A1, “COMPOSITIONS COMPRISING A CANCER STEMNESS INHIBITOR AND AN IMMUNOTHERAPEUTIC AGENT FOR USE IN TREATING CANCER” (Boston Biomedical, Inc., priority 2015, published 2018).

Tested on: microsatellite stable (MSS) metastatic colorectal cancer (mCRC)
Settings: patients with MSS mCRC, cited from earlier work

Substance: pembrolizumab: immunotherapeutic agent that binds to PD-1
- immune-related progression-free survival at 20 weeks (20 weeks): 11%
- disease control rate: 11%
- effectiveness: not effective
- immune-related objective response rate: 0%
- response rate: 0%
